This test deals with drug-resistant Mycobacterium tuberculosis. Conditions: 10 micrograms per ml; seven days at 37° C.; strain resistant to PAS, streptomycin and isoniazid.

Ends that are not written are not given here.

Regarding `CC(C)C[C@H](NC(=O)CNC(=O)[C@H](Cc1ccc(O)cc1)NC(=O)[C@H](CO)NC(=O)[C@H](Cc1c[nH]c2ccccc12)NC(=O)[C@H](Cc1cnc[nH]1)NC(=O)[C@@H]1CCC(=O)N1)C(=O)N[C@@H](CCCNC(=N)N)C(=O)N1CCC[C@H]1C(=O)NCC(N)=O` [Peptide 1], the “inhibition of the growth of Mycobacterium tuberculosis” value came out at 100%.

In the case of “Met-Gln-Met-Lys-Lys-Val-Leu-Asp-Ser-OH (MQMKKVLDS-OH) [Peptide 2]”, the “inhibition of the growth of Mycobacterium tuberculosis” value worked out at 100%.

The values are drawn from patent US8349805B2, “Use of Gonadorelin as a therapeutic agent” (priority 2007, dated 2013).
